Molecules are shown by their SMILES.

The target of the assay is T1, human FSH receptor (Homo sapiens, UniProt P23945).
T1 construct: expressed in transfected cells; host or cells: CHO cells (hFSHR clone 16)
T1 sequence (P23945 18-695): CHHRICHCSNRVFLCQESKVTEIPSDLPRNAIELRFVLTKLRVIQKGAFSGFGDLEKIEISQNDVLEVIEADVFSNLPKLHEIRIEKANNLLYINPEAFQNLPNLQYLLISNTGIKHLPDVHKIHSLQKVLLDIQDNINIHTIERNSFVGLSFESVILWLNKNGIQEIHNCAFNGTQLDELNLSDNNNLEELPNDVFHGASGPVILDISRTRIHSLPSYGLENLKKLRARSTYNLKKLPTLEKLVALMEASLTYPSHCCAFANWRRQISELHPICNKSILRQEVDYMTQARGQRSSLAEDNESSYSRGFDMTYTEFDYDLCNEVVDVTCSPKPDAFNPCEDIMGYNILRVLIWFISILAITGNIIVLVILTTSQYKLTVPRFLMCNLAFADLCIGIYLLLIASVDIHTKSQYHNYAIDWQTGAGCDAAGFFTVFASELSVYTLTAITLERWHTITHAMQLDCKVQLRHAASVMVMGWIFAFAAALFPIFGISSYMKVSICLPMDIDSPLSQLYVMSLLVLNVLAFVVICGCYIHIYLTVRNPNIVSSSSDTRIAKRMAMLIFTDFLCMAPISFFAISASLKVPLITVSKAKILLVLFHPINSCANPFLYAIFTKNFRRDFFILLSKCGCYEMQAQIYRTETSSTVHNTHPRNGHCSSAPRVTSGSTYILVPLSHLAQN
Put plainly: HTRF assay for measuring cAMP in cells (FSH antagonism). Type of assay: cell-based. The note with it: hFSHR clone 16 cells (CHO cells stably transfected with the human FSH receptor); in the presence of 1e-9 mol/l hFSH; cAMP readout; read-out: IC50 (FSH antagonistic effect in the HTRF assay). Here is the method:
HTRF Assay for Measuring cAMP in Cells
The method is based on a competitive immunoassay between native cAMP, which has been produced by the cells, and cAMP which is labelled with cAMPD2 conjugate. The tracer binding was visualized by a monoclonal antibody, anti-cAMP labelled with cryptate [HTRF=homogeneous time-resolved fluorescence].
The specific signal is inversely proportional to the cAMP concentration of the samples employed.
The 665 nm/620 nm fluorescence ratio was evaluated.
The following material was used: 96-well plates for the tissue culture, 96-well plates with black edge and black base (e.g. Fluotrac 600 from Greiner), 96-well plates for the substance dilutions of polypropylene and cAMP Femtomolar (4000wells Kit, CIS Bio International #62AM5PEJ).
The following reagents were used: BSA (bovine serum albumin) Fraction V protease-free, IBMX (3-isobutyl-1-methylxanthine), hFSH (human follicle stimulating hormone), Triton X-100 analytical grade, potassium fluoride analytical grade, G 418 (Geneticin) and Accutase.
Buffer 1 (washing and testing buffer) contained PBS, 1 mM CaCl2, 1 mM MgCl2, 0.2% glucose; 0.1% BSA, 1 mM IBMX.
Buffer 2 (2× lysis buffer) contained 1% Triton X-100 in PBS (without CaCl2 and MgCl2).
Buffer 3 (assay buffer) contained 50 mM potassium phosphate buffer (pH 7.0); 800 mM potassium fluoride; 0.2% BSA (always added fresh).
On day 1, the cells were seeded in 96-well plates (3×10^4 cells per well hFSHR clone 16 cells (CHO cells stably transfected with the human FSH receptor in 150 μl of medium). The next day, test substance dilutions were made up. For this purpose, all the substances were diluted in ice-cold buffer 1 (with or without hFSH), and the substance dilutions were placed on ice until applied to the cells.
The cell supernatant was then aspirated off, and the cells were washed 2× with 200 μl of buffer 1. The cells were treated with 60 μl of the appropriate substance concentrations at 37° C. for 2 h. The cells were then lysed with 60 μl of buffer 2 (put onto the supernatant) (on a plate shaker at RT for 30 min).
The test conjugates (cAMP-D2 and anti-cAMP cryptate, CIS Bio) were diluted in buffer 3 in accordance with the manufacturers' information. The actual mixture for measurement was pipetted into a black 96-well plate (in each case 15 μl of the cell lysate diluted with 35 μl of buffer 1; firstly 25 μl of cAMP-D2 conjugate were pipetted and, after 10 min, 25 μl of the anti-cAMP cryptate were added). This is followed by incubation at RT for 90 minutes. The measurement was carried out in a PheraStar (BMG).
Dose-effect curve (hFSH) for the human receptor: 1e-8, 3e-9, 1e-9, 3e-10, 1e-10, 3e-11, 1e-11, 3e-12 mol/l.
The test substances were employed in suitable dilutions in the absence (test for agonism) and in the presence of 1e-9 mol/l hFSH.
The values of the well ratio were averaged and then entered directly in SigmaPlot versus the concentrations. The maximum and minimum values were determined for each plate, and half the difference is to be regarded as IC50.
(Time-resolved FRET reads energy transfer from a long-lived donor to a nearby acceptor.)
What is called IC50 is the concentration that gives 50% inhibition. As for `CNC(=O)c1cc(F)cc(-c2ccc(OC(C)C)c(C(=O)NC(C)(CO)Cc3c[nH]c4ccccc34)c2)c1` (centres unmarked) [Example 2, 5′-Fluoro-4-isopropoxy-biphenyl-3,3′-dicarboxylic acid 3-{[2-hydroxy-1-(1H-indol-3-ylmethyl)-1-methyl-ethyl]-amide} 3′-methylamide], the half-maximal inhibitory concentration (IC50) was 1000 nM.
Under `CC(C)Oc1ccc(C#Cc2ccccc2)cc1C(=O)NC(C)(CO)Cc1c[nH]c2ccccc12` (centres unmarked) [Example 1, N-[1-Hydroxymethyl-2-(1H-indol-3-yl)-1-methyl-ethyl]-2-isopropoxy-5-phenylethynyl-benzamide] stands 1000 nM.
Then `CNC(=O)c1ccc(-c2ccc(OC(C)C)c(C(=O)NC(C)(CO)Cc3c[nH]c4ccccc34)c2)cc1Cl` (centres unmarked) [Example 3, 3′-Chloro-4-isopropoxy-biphenyl-3,4′-dicarboxylic acid 3-{[2-hydroxy-1-(1H-indol-3-ylmethyl)-1-methyl-ethyl]-amide}-4′-methylamide], with 100 nM.
Consider `COc1ccc(-c2ccc(OC(C)C)c(C(=O)NC(C)(CO)Cc3c[nH]c4ccccc34)c2)cc1OC` (racemic) [Example 4, 4-Isopropoxy-3′,4′-dimethoxy-biphenyl-3-carboxylic acid [1-hydroxymethyl-2-(1H-indol-3-yl)-1-methyl-ethyl]-amide], for which the IC50 stood at 50 nM.
In the case of `COc1ccccc1C#Cc1ccc(OC(C)C)c(C(=O)NC(C)(CO)Cc2c[nH]c3ccccc23)c1` (centres unmarked) [Example 5, N-[1-Hydroxymethyl-2-(1H-indol-3-yl)-1-methyl-ethyl]-2-isopropoxy-5-(2-methoxy-phenylethynyl)-benzamide], the 50% inhibitory concentration (IC50) was 200 nM.

The record behind these values is patent US20090069328A1, “ALPHA-ALKYL SUBSTITUTED N-ACYLTRYPTOPHANOLS” (priority 2007, published 2009).
